# Test results reported in PMC9516332 (Frontiers in Oncology, 2022).
# Where two headings read alike, the source gives them in different places.
# What was measured:
# AP-1060 (ETV6-NTRK3) = assay: Cell viability assay; details: read-out: IC50 in cell proliferation assay
# [1] = target: panel of 255 wild-type kinases (Homo sapiens, UniProt Q9HBH9); assay: Kinase panel profiling at 1 µmol/L (MSA or IMAP), percentage inhibition; assay type: biochemical; details: MNK2; 1 µmol/L single concentration; read-out: %-inhibition, MNK2
# [2] = target: panel of 255 wild-type kinases (Homo sapiens, UniProt P50613); assay: as above; assay type: biochemical; details: CDK7/CycH/MAT1 kinase assay; 1 µmol/L single concentration; read-out: %-inhibition CDK7/CycH/MAT1
# [3] = target: panel of 255 wild-type kinases (Homo sapiens, UniProt P22607); assay: as above; assay type: biochemical; details: kinase FGFR3; 1 µmol/L single concentration; read-out: %-inhibition at 1 µmol/L, FGFR3
# [4] = target: panel of 255 wild-type kinases (Homo sapiens, UniProt Q96RG2); assay: as above; assay type: biochemical; details: PASK; 1 µmol/L single concentration; read-out: %-inhibition, PASK
# [5] = target: panel of 255 wild-type kinases (Homo sapiens, UniProt Q00526); assay: as above; assay type: biochemical; details: CDK3/CycE1 kinase assay; 1 µmol/L single concentration; read-out: %-inhibition CDK3/CycE1
# [6] = target: panel of 255 wild-type kinases (Homo sapiens, UniProt O75582); assay: as above; assay type: biochemical; details: MSK1; 1 µmol/L single concentration; read-out: %-inhibition, MSK1
# [7] = target: panel of 255 wild-type kinases (Homo sapiens, UniProt P49760); assay: as above; assay type: biochemical; details: kinase CLK2; 1 µmol/L single concentration; read-out: %-inhibition at 1 µmol/L, CLK2
# [8] = target: panel of 255 wild-type kinases (Homo sapiens, UniProt P45983); assay: as above; assay type: biochemical; details: kinase JNK1; 1 µmol/L single concentration; read-out: %-inhibition at 1 µmol/L, JNK1
# [9] = target: panel of 255 wild-type kinases (Homo sapiens, UniProt Q13177); assay: as above; assay type: biochemical; details: PAK2; 1 µmol/L single concentration; read-out: %-inhibition, PAK2
# 134 cancer cell lines = assay: Cell viability assay (ATPlite, 72 hours), IC50 on cancer cell line panel
structure (smiles),measurement,setting,value
CCn1c(=O)c(-c2cc(NC(=O)Nc3ccccc3)c(F)cc2Br)cc2cnc(NC)cc21 [ripretinib],IC50,AP-1060 (ETV6-NTRK3),2.83 µM
same,inhibition at 1 µM,[1],5%
same,inhibition at 1 µM,[2],-1.48%
same,inhibition at 1 µM,[3],52%
same,inhibition at 1 µM,[4],-1%
same,inhibition at 1 µM,[5],-4.34%
same,inhibition at 1 µM,[6],14%
same,inhibition at 1 µM,[7],-4%
same,inhibition at 1 µM,[8],4%
same,inhibition at 1 µM,[9],4.69%
same,IC50,"134 cancer cell lines; HEC-6, read-out: IC50 in cell proliferation assay",1.86 µM
same,IC50,"134 cancer cell lines; Homo sapiens, 769-P, read-out: IC50 in cell proliferation assay",2.58 µM
same,IC50,"134 cancer cell lines; Homo sapiens, 786-0, read-out: IC50 in cell proliferation assay",2.14 µM
same,IC50,"134 cancer cell lines; Homo sapiens, A 172, read-out: IC50 in cell proliferation assay",4.96 µM
same,IC50,"134 cancer cell lines; Homo sapiens, A204, read-out: IC50 in cell proliferation assay",0.52 µM
same,IC50,"134 cancer cell lines; Homo sapiens, A498, read-out: IC50 in cell proliferation assay",1.14 µM
same,IC50,"134 cancer cell lines; Homo sapiens, A549, read-out: IC50 in cell proliferation assay",2.69 µM
same,IC50,"134 cancer cell lines; Homo sapiens, A704, read-out: IC50 in cell proliferation assay",2.21 µM
same,IC50,"134 cancer cell lines; Homo sapiens, A-375, read-out: IC50 in cell proliferation assay",2.92 µM
same,IC50,"134 cancer cell lines; Homo sapiens, A-427, read-out: IC50 in cell proliferation assay",1.52 µM
same,IC50,"134 cancer cell lines; Homo sapiens, ACHN, read-out: IC50 in cell proliferation assay",1.47 µM
same,IC50,"134 cancer cell lines; Homo sapiens, AN3-CA, read-out: IC50 in cell proliferation assay",1.01 µM
same,IC50,"134 cancer cell lines; Homo sapiens, ASPC1, read-out: IC50 in cell proliferation assay",7.56 µM
same,IC50,"134 cancer cell lines; Homo sapiens, AU565, read-out: IC50 in cell proliferation assay",3.75 µM
same,IC50,"134 cancer cell lines; Homo sapiens, BT-20, read-out: IC50 in cell proliferation assay",7.43 µM
same,IC50,"134 cancer cell lines; Homo sapiens, BT-474, read-out: IC50 in cell proliferation assay",2.23 µM
same,IC50,"134 cancer cell lines; Homo sapiens, BT-549, read-out: IC50 in cell proliferation assay",4.51 µM
same,IC50,"134 cancer cell lines; Homo sapiens, BXPC-3, read-out: IC50 in cell proliferation assay",1.51 µM
same,IC50,"134 cancer cell lines; Homo sapiens, C-33-A, read-out: IC50 in cell proliferation assay",4.83 µM
same,IC50,"134 cancer cell lines; Homo sapiens, CAL-27, read-out: IC50 in cell proliferation assay",9.8 µM
same,IC50,"134 cancer cell lines; Homo sapiens, CCF-STTG1, read-out: IC50 in cell proliferation assay",> 31.6 µM
same,IC50,"134 cancer cell lines; Homo sapiens, CCRF-CEM, read-out: IC50 in cell proliferation assay",4.98 µM
same,IC50,"134 cancer cell lines; Homo sapiens, COLO 205, read-out: IC50 in cell proliferation assay",1.87 µM
same,IC50,"134 cancer cell lines; Homo sapiens, COLO-829, read-out: IC50 in cell proliferation assay",2.49 µM
same,IC50,"134 cancer cell lines; Homo sapiens, DLD-1, read-out: IC50 in cell proliferation assay",1.54 µM
same,IC50,"134 cancer cell lines; Homo sapiens, DU-145, read-out: IC50 in cell proliferation assay",1.97 µM
same,IC50,"134 cancer cell lines; Homo sapiens, DU-4475, read-out: IC50 in cell proliferation assay",3.38 µM
same,IC50,"134 cancer cell lines; Homo sapiens, Daoy, read-out: IC50 in cell proliferation assay",2.06 µM
same,IC50,"134 cancer cell lines; Homo sapiens, DoTc2-4510, read-out: IC50 in cell proliferation assay",6.21 µM
same,IC50,"134 cancer cell lines; Homo sapiens, EOL1, read-out: IC50 in cell proliferation assay",0.000634 µM
same,IC50,"134 cancer cell lines; Homo sapiens, FaDu, read-out: IC50 in cell proliferation assay",3.05 µM
same,IC50,"134 cancer cell lines; Homo sapiens, G-361, read-out: IC50 in cell proliferation assay",2.52 µM
same,IC50,"134 cancer cell lines; Homo sapiens, HCC827, read-out: IC50 in cell proliferation assay",3.83 µM
same,IC50,"134 cancer cell lines; Homo sapiens, HCC4006, read-out: IC50 in cell proliferation assay",> 31.6 µM
same,IC50,"134 cancer cell lines; Homo sapiens, HCT-15, read-out: IC50 in cell proliferation assay",2.56 µM
same,IC50,"134 cancer cell lines; Homo sapiens, HCT-116, read-out: IC50 in cell proliferation assay",3.02 µM
same,IC50,"134 cancer cell lines; Homo sapiens, HEC-1, read-out: IC50 in cell proliferation assay",1.36 µM
same,IC50,"134 cancer cell lines; Homo sapiens, HEC-1B, read-out: IC50 in cell proliferation assay",0.426 µM
same,IC50,"134 cancer cell lines; Homo sapiens, HL-60, read-out: IC50 in cell proliferation assay",1.81 µM
same,IC50,"134 cancer cell lines; Homo sapiens, HT, read-out: IC50 in cell proliferation assay",> 31.6 µM
same,IC50,"134 cancer cell lines; Homo sapiens, HT-1080, read-out: IC50 in cell proliferation assay",1.7 µM
same,IC50,"134 cancer cell lines; Homo sapiens, Hs746T, read-out: IC50 in cell proliferation assay",3.1 µM
same,IC50,"134 cancer cell lines; Homo sapiens, Hs-578T, read-out: IC50 in cell proliferation assay",3.73 µM
same,IC50,"134 cancer cell lines; Homo sapiens, HuTu80, read-out: IC50 in cell proliferation assay",1.58 µM
same,IC50,"134 cancer cell lines; Homo sapiens, J82, read-out: IC50 in cell proliferation assay",2.3 µM
same,IC50,"134 cancer cell lines; Homo sapiens, Jurkat E6.1, read-out: IC50 in cell proliferation assay",2.64 µM
same,IC50,"134 cancer cell lines; Homo sapiens, K562, read-out: IC50 in cell proliferation assay",1.85 µM
same,IC50,"134 cancer cell lines; Homo sapiens, KATO III, read-out: IC50 in cell proliferation assay",0.676 µM
same,IC50,"134 cancer cell lines; Homo sapiens, KG-1, read-out: IC50 in cell proliferation assay",0.59 µM
same,IC50,"134 cancer cell lines; Homo sapiens, KLE, read-out: IC50 in cell proliferation assay",9.98 µM
same,IC50,"134 cancer cell lines; Homo sapiens, KMS-11, read-out: IC50 in cell proliferation assay",4.57 µM
same,IC50,"134 cancer cell lines; Homo sapiens, KU812, read-out: IC50 in cell proliferation assay",0.85 µM
